In assay [1] the target is MCL-1 (Homo sapiens (Human), UniProt Q07820). Nature of the assay: Cell free Mcl-1:Bim affinity assay (fluorescence polarization competition). As to conditions: 15 nM MCL-1, 5 nM FITC-Bim, 1 hour at room temperature; class symbols; read-out: BIM_Ki. It is filed as binding. In a few lines:
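Fluorescence polarization competition: 10-point 3-fold compound dilutions displaced 5 nM FITC-Bim from 15 nM MCL-1 over 1 h at room temperature. Ki was derived from the fitted IC50 using the Nikolovska-Coleska equation, with percent inhibition normalized to DMSO and positive controls.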
In general terms: In fluorescence polarisation assays a small probe gives low polarisation when free and higher when bound to something large.

Assay [2] has as its system H929 cells. Nature of the assay: Cell viability assay (H929 10 FBS). It is filed as cell-based. The note with it: Homo sapiens, NCI-H929, 24 hours, read-out: H929_10FBS IC50. In a few lines:
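ATP-based luminescence (CellTiter-Glo or ATPlite 1 Step, 30-60 min at RT) gauged viability of H929 myeloma cells after 24 h compound treatment at 37 °C. Cells plated at 4000 per well in 10% FBS RPMI 1640 supplemented with pyruvate, HEPES and glucose.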

This is an account of results in patent US11130769B2 (Prelude Therapeutics Incorporated, priority 2018, dated 2021).

Molecules are shown by their SMILES. A value given as a limit tells only on which side of the number the result lay.

Sequence of MCL-1 (Q07820 whole entry): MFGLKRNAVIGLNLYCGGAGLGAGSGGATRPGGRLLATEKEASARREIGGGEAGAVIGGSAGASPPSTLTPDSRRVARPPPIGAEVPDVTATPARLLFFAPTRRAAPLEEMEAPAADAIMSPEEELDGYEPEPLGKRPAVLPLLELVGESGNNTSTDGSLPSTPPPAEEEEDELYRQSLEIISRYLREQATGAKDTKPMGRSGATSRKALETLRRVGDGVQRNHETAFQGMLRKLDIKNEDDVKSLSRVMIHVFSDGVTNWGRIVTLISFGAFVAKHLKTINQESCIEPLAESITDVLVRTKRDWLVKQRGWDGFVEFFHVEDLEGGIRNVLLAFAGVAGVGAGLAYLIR

In general, IC50 refers to the concentration needed to halve the response being measured. On to `COCCN1CCCN(CCO[C@H]2/C=C/CN(C)C(C)(C)C(=O)NS(=O)(=O)c3ccc4c(c3)N(C[C@@H]3CC[C@H]32)C[C@@]2(CCCc3cc(Cl)ccc32)CO4)CC1` [Example 277, (3R,6R,7S,8E,22S)-6′-Chloro-7-[2-[4-(2-methoxyethyl)-1,4-diazepan-1-yl]ethoxy]-11,12,12-trimethyl-15,15-dioxo-spiro[20-oxa-15-thia-1,11,14-triazatetracyclo[14.7.2.03,6.019,24]pentacosa-8,16,18,24-tetraene-22,1′-tetralin]-13-one], for which the Ki in assay [1] is 1 to 100 nM. Further, in assay [2], the IC50 is over 1000 nM.
With `CC1(C)OC/C=C/[C@H](OCC(=O)N2CC(F)(F)C2)[C@@H]2CC[C@H]2CN2C[C@@]3(CCCc4cc(Cl)ccc43)COc3ccc(cc32)S(=O)(=O)NC1=O` [Example 278, (3R,6R,7S,8E,22S)-6′-Chloro-7-[2-(3,3-difluoroazetidin-1-yl)-2-oxo-ethoxy]-12,12-dimethyl-15,15-dioxo-spiro[11,20-dioxa-15-thia-1,14-diazatetracyclo[14.7.2.03,6.019,24]pentacosa-8,16,18,24-tetraene-22,1′-tetralin]-13-one], the Ki in assay [1] was under 1 nM. Further, in assay [2], the IC50 was under 500 nM.
For `CC1(C)OC/C=C/[C@H](OCC(=O)N2CCC2)[C@@H]2CC[C@H]2CN2C[C@@]3(CCCc4cc(Cl)ccc43)COc3ccc(cc32)S(=O)(=O)NC1=O` [Example 279, (3R,6R,7S,8E,22S)-7-[2-(Azetidin-1-yl)-2-oxo-ethoxy]-6′-chloro-12,12-dimethyl-15,15-dioxo-spiro[11,20-dioxa-15-thia-1,14-diazatetracyclo[14.7.2.03,6.019,24]pentacosa-8,16,18,24-tetraene-22,1′-tetralin]-13-one], the Ki in assay [1] is under 1 nM. Also, the IC50 in assay [2] is under 500 nM.
Taken in the same sequence, the figures for `COC1CN(C(=O)CO[C@H]2/C=C/COC(C)(C)C(=O)NS(=O)(=O)c3ccc4c(c3)N(C[C@@H]3CC[C@H]32)C[C@@]2(CCCc3cc(Cl)ccc32)CO4)C1` [Example 280, (3R,6R,7S,8E,22S)-6′-Chloro-7-[2-(3-methoxyazetidin-1-yl)-2-oxo-ethoxy]-12,12-dimethyl-15,15-dioxo-spiro[11,20-dioxa-15-thia-1,14-diazatetracyclo[14.7.2.03,6.019,24]pentacosa-8,16,18,24-tetraene-22,1′-tetralin]-13-one] were under 1 nM and under 500 nM.
For the compound `CC1(C)OC/C=C/[C@H](OCC(=O)N2CC(F)C2)[C@@H]2CC[C@H]2CN2C[C@@]3(CCCc4cc(Cl)ccc43)COc3ccc(cc32)S(=O)(=O)NC1=O` [Example 281, (3R,6R,7S,8E,22S)-6′-Chloro-7-[2-(3-fluoroazetidin-1-yl)-2-oxo-ethoxy]-12,12-dimethyl-15,15-dioxo-spiro[11,20-dioxa-15-thia-1,14-diazatetracyclo[14.7.2.03,6.019,24]pentacosa-8,16,18,24-tetraene-22,1′-tetralin]-13-one], in assay [1], the Ki was under 1 nM. In assay [2], the IC50 was under 500 nM.
Taken in the same sequence, the figures for `CC1(C)OC/C=C/[C@H](OCC(=O)NC2CCOCC2)[C@@H]2CC[C@H]2CN2C[C@@]3(CCCc4cc(Cl)ccc43)COc3ccc(cc32)S(=O)(=O)NC1=O` [Example 282, 2-[(3R,6R,7S,8E,22S)-6′-Chloro-12,12-dimethyl-13,15,15-trioxo-spiro[11,20-dioxa-15λ6-thia-1,14-diazatetracyclo[14.7.2.03,6.019,24]pentacosa-8,16,18,24-tetraene-22,1′-tetralin]-7-yl]oxy-N-tetrahydropyran-4-yl-acetamide] were under 1 nM and under 500 nM.
As for `CC1(C)OC/C=C/[C@H](OCC(=O)N2CCCC2)[C@@H]2CC[C@H]2CN2C[C@@]3(CCCc4cc(Cl)ccc43)COc3ccc(cc32)S(=O)(=O)NC1=O` [Example 283, (3R,6R,7S,8E,22S)-6′-Chloro-12,12-dimethyl-15,15-dioxo-7-(2-oxo-2-pyrrolidin-1-yl-ethoxy)spiro[11,20-dioxa-15-thia-1,14-diazatetracyclo[14.7.2.03,6.019,24]pentacosa-8,16,18,24-tetraene-22,1′-tetralin]-13-one], in assay [1], the Ki was under 1 nM. The 50% inhibitory concentration (IC50) in assay [2] was under 500 nM.
The like results for `CC1(C)OC/C=C/[C@H](OCC(=O)N[C@@H]2CCOC2)[C@@H]2CC[C@H]2CN2C[C@@]3(CCCc4cc(Cl)ccc43)COc3ccc(cc32)S(=O)(=O)NC1=O` [Example 284, 2-[(3R,6R,7S,8E,22S)-6′-Chloro-12,12-dimethyl-13,15,15-trioxo-spiro[11,20-dioxa-15λ6-thia-1,14-diazatetracyclo[14.7.2.03,6.019,24]pentacosa-8,16,18,24-tetraene-22,1′-tetralin]-7-yl]oxy-N-[(3R)-tetrahydrofuran-3-yl]acetamide] were, in that order, under 1 nM and under 500 nM.
In the case of `CC1(C)OC/C=C/[C@H](OCC(=O)N[C@H]2CCOC2)[C@@H]2CC[C@H]2CN2C[C@@]3(CCCc4cc(Cl)ccc43)COc3ccc(cc32)S(=O)(=O)NC1=O` [Example 285, 2-[(3R,6R,7S,8E,22S)-6′-Chloro-12,12-dimethyl-13,15,15-trioxo-spiro[11,20-dioxa-15λ6-thia-1,14-diazatetracyclo[14.7.2.03,6.019,24]pentacosa-8,16,18,24-tetraene-22,1′-tetralin]-7-yl]oxy-N-[(3S)-tetrahydrofuran-3-yl]acetamide], the Ki in assay [1] was under 1 nM. In addition, in assay [2], the IC50 was under 500 nM.
The like results for `CN(C)C(=O)OC1CCCOC(C)(C)C(=O)NS(=O)(=O)c2ccc3c(c2)N(C[C@@H]2CC[C@@H]12)C[C@@]1(CCCc2cc(Cl)ccc21)CO3` (stereo partly drawn) [Example 286, [(3R,6R,22S)-6′-Chloro-12,12-dimethyl-13,15,15-trioxo-spiro[11,20-dioxa-15-thia-1,14-diazatetracyclo[14.7.2.03,6.019,24]pentacosa-16,18,24-triene-22,1′-tetralin]-7-yl] N,N-dimethylcarbamate] were, in that order, 1 to 100 nM and over 1000 nM.
Take `CN1C/C=C/[C@H](OCCN2CC(F)(F)C2)[C@@H]2CC[C@H]2CN2C[C@@]3(CCCc4cc(Cl)ccc43)COc3ccc(cc32)S(=O)(=O)NC(=O)C1(C)C` [Example 287, (3R,6R,7S,8E,22S)-6′-Chloro-7-[2-(3,3-difluoroazetidin-1-yl)ethoxy]-11,12,12-trimethyl-15,15-dioxo-spiro[20-oxa-15-thia-1,11,14-triazatetracyclo[14.7.2.03,6.019,24]pentacosa-8,16,18,24-tetraene-22,1′-tetralin]-13-one]: the Ki in assay [1] was under 1 nM. In addition, the IC50 in assay [2] was under 500 nM.
As to `CN1C/C=C/[C@H](OCCN2CCC(F)(F)C2)[C@@H]2CC[C@H]2CN2C[C@@]3(CCCc4cc(Cl)ccc43)COc3ccc(cc32)S(=O)(=O)NC(=O)C1(C)C` [Example 288, (3R,6R,7S,8E,22S)-6′-Chloro-7-[2-(3,3-difluoropyrrolidin-1-yl)ethoxy]-11,12,12-trimethyl-15,15-dioxo-spiro[20-oxa-15-thia-1,11,14-triazatetracyclo[14.7.2.03,6.019,24]pentacosa-8,16,18,24-tetraene-22,1′-tetralin]-13-one], the Ki in assay [1] fell in the range of 1 to 100 nM. In addition, the IC50 in assay [2] was over 1000 nM.
In the case of `CN1C/C=C/[C@H](OCCN2CCCCC2)[C@@H]2CC[C@H]2CN2C[C@@]3(CCCc4cc(Cl)ccc43)COc3ccc(cc32)S(=O)(=O)NC(=O)C1(C)C` [Example 289, (3R,6R,7S,8E,22S)-6′-Chloro-11,12,12-trimethyl-15,15-dioxo-7-[2-(1-piperidyl)ethoxy]spiro[20-oxa-15-thia-1,11,14-triazatetracyclo[14.7.2.03,6.019,24]pentacosa-8,16,18,24-tetraene-22,1′-tetralin]-13-one], the Ki in assay [1] is 1 to 100 nM. For the same compound, the IC50 in assay [2] is over 1000 nM.
The like results for `CC1(C)OC/C=C/[C@H](OCC(=O)N2C[C@@H](F)[C@H](F)C2)[C@@H]2CC[C@H]2CN2C[C@@]3(CCCc4cc(Cl)ccc43)COc3ccc(cc32)S(=O)(=O)NC1=O` [Example 290, (3R,6R,7S,8E,22S)-6′-Chloro-7-[2-[(3R,4R)-3,4-difluoropyrrolidin-1-yl]-2-oxo-ethoxy]-12,12-dimethyl-15,15-dioxo-spiro[11,20-dioxa-15-thia-1,14-diazatetracyclo[14.7.2.03,6.019,24]pentacosa-8,16,18,24-tetraene-22,1′-tetralin]-13-one] were, in that order, under 1 nM and under 500 nM.
`CC1(C)OC/C=C/[C@H](OCC(=O)N2C[C@@H](F)[C@@H](F)C2)[C@@H]2CC[C@H]2CN2C[C@@]3(CCCc4cc(Cl)ccc43)COc3ccc(cc32)S(=O)(=O)NC1=O` [Example 291, (3R,6R,7S,8E,22S)-6′-Chloro-7-[2-[(3R,4S)-3,4-difluoropyrrolidin-1-yl]-2-oxo-ethoxy]-12,12-dimethyl-15,15-dioxo-spiro[11,20-dioxa-15λ6-thia-1,14-diazatetracyclo[14.7.2.03,6.019,24]pentacosa-8,16,18,24-tetraene-22,1′-tetralin]-13-one]: the Ki in assay [1] was under 1 nM. For the same compound, the half-maximal inhibitory concentration (IC50) in assay [2] was under 1000 nM.
Consider `CC1/C=C/[C@H](OC(=O)N(C)C)[C@@H]2CC[C@H]2CN2C[C@@]3(CCCc4cc(Cl)ccc43)COc3ccc(cc32)S(=O)(=O)NC(=O)C(C)(C)O1` (stereo partly drawn) [Example 292, [(3R,6R,7S,8E,22S)-6′-Chloro-10,12,12-trimethyl-13,15,15-trioxo-spiro[11,20-dioxa-15-thia-1,14-diazatetracyclo[14.7.2.03,6.019,24]pentacosa-8,16,18,24-tetraene-22,1′-tetralin]-7-yl] N,N-dimethylcarbamate], for which the Ki in assay [1] is under 1 nM. The half-maximal inhibitory concentration (IC50) in assay [2] was under 500 nM.
